Patent publication US20230114728A1 (Venatorx Pharmaceuticals, Inc., priority 2019, published 2023)
≈ marks a conversion by molar mass, not a printed value.

What was measured:
[1] = test system: K. pneumoniae 848844 producing SHV-11 and KPC-2; test: Broth microdilution MIC in CAMHB; type: cell-based; details: Klebsiella pneumoniae, read-out: Minimum Inhibitory Concentration, K. pneumoniae 848844
In short: (§1)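 MIC, read by eye, is the lowest compound concentration giving no bacterial growth after 16-20 h at 37° C. Test compounds are serially diluted 2-fold in CAMHB and seeded with 2-8×10^5 CFU/mL of bacteria taken from a 3-5 h shaking culture, following CLSI methods.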

[2] = test system: K. pneumoniae UMM producing SHV-5 and KPC-2; test: Broth microdilution MIC in CAMHB; type: cell-based; details: Klebsiella pneumoniae, read-out: Minimum Inhibitory Concentration, K. pneumoniae UMM
In short: as §1

E. coli 901C = test: Broth microdilution MIC in CAMHB; type: cell-based; details: Escherichia coli; E. coli 901C (hyper-permeable); MHB; read-out: Minimum Inhibitory Concentration, E. coli 901C
In short: as §1

P. aeruginosa ATCC 35151 = test: Broth microdilution MIC in CAMHB; type: cell-based; details: Pseudomonas aeruginosa, ATCC35151; MHB; hyper-permeable strain; read-out: Minimum Inhibitory Concentration, P. aeruginosa ATCC 35151
In short: as §1

E. coli ATCC 25922 = test: Broth microdilution MIC in CAMHB; type: cell-based; details: Escherichia coli, ATCC25922; E. coli ATCC 25922; MHB; read-out: Minimum Inhibitory Concentration, E. coli 25922
In short: as §1

E. coli AG100 = test: Broth microdilution MIC in CAMHB; type: cell-based; details: Escherichia coli; E. coli AG100 (wild-type parent); MHB; read-out: Minimum Inhibitory Concentration, E. coli AG100
In short: as §1

P. aeruginosa ATCC 27853 = test: Broth microdilution MIC in CAMHB; type: cell-based; details: Pseudomonas aeruginosa, ATCC27853; MHB; read-out: Minimum Inhibitory Concentration, P. aeruginosa ATCC 27853
In short: as §1

E. coli AG100A = test: Broth microdilution MIC in CAMHB; type: cell-based; details: Escherichia coli, read-out: Minimum Inhibitory Concentration, E. coli AG100A
In short: as §1

[3] = test system: K. pneumoniae SI-117 producing VIM-1; test: Broth microdilution MIC in CAMHB; type: cell-based; details: Klebsiella pneumoniae, read-out: Minimum Inhibitory Concentration, K. pneumoniae SI-117
In short: as §1

[4] = test system: P. aeruginosa (ΔmexAB-oprM); test: Broth microdilution MIC in CAMHB; type: cell-based; details: Pseudomonas aeruginosa, read-out: Minimum Inhibitory Concentration, P. aeruginosa ΔmexAB-OprM
In short: as §1

E. coli D22 = test: Broth microdilution MIC in CAMHB; type: cell-based; details: Escherichia coli; E. coli D22 (hyper-permeable); MHB; read-out: Minimum Inhibitory Concentration, E. coli D22
In short: as §1

A. baumannii ATCC 19606 = test: Broth microdilution MIC in CAMHB; type: cell-based; details: Acinetobacter baumannii, ATCC19606; MHB; read-out: Minimum Inhibitory Concentration, A. baumannii ATCC 19606
In short: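 CLSI broth microdilution in CAMHB: 2-fold compound dilutions inoculated at 2-8×10^5 CFU/mL from 3-5 h log-phase cultures. Incubated at 37 °C for 16-20 h (Enterobacteriaceae, Pseudomonas); MIC read visually as lowest concentration without growth. Strains include hyper-permeable and efflux-deficient mutants.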

P. aeruginosa PBP3 = target: T1, P. aeruginosa PBP3 (Pseudomonas aeruginosa, UniProt G3XD46); test: Bocillin-FL fluorescence polarization competition binding assay, P. aeruginosa PBP3; details: fluorescence polarization competition binding assay using Bocillin-FL
T1 construct: made in house
In short: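 Binding of boronic acid inhibitors to purified Pseudomonas aeruginosa (PA01) PBP3 was measured by fluorescence polarization competition with Bocillin-FL, a fluorescent penicillin V. Reactions of 80 μl contained 0.75 μM PBP3 and 0.1 μM Bocillin-FL in 50 mM Hepes (pH 8.0), 300 mM NaCl and 5% (v/v) glycerol, in black 384-well plates. FP (Excitation 490 nm, Emission 520 nm) was read for up to 60 minutes. EC50 is the concentration that halves PBP-bound Bocillin-FL.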

E. coli K12 PBP3 = target: T2, E. coli K12 PBP3 (Escherichia coli, UniProt P0AD68); test: biochemical; type: binding
T2 construct: made in house
In short: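 Fluorescence polarization (ex 490/em 520 nm) competition of inhibitors against Bocillin-FL at 0.1 μM, read up to 60 min. Final PBP levels: E. coli PBP3 1.5 μM; A. baumannii PBP2 2.5 μM, PBP3 0.2 μM in Tris pH 8.0/NaCl/glycerol/Tween 20; N. gonorrhoeae PBP2 […] in Hepes pH 8.0/NaCl/glycerol. EC50 = concentration halving PBP-bound Bocillin-FL.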

[5] = Bocillin-FL fluorescence polarization competition binding assay, A. baumannii PBP3; details: fluorescence polarization competition binding assay using Bocillin-FL; column 3; read-out: 4. baumannii PBP1a Potency
From the text: Example I: Experimental Method for Penicillin-Binding Protein Binding Assays with Bocillin-FL Via Fluorescence Polarization
To determine the ability of boronic acid-based test PBP inhibitors to bind Penicillin Binding Proteins (PBPs), Bocillin-FL (fluorescently-labeled penicillin V; ThermoFisher Scientific) was used in a fluorescence polarization (FP) competition binding assay to assess inhibitor binding to PBP2, PBP3 or PBP4 from Escherichia coli (K12), PBP3 from Pseudomonas aeruginosa (PA01), PBP1a, PBP2 and PBP3 from Acinetobacter baumannii (ATCC 19606), and PBP2 from Neiserria gonorrheae (FA19). PBPs were cloned and purified as described previously (E. coli PBPs, King, D. T, et al., ACS Infectious Diseases 2015, 1, 175-184; P. aeruginosa PBP3, Han et. al., PNAS 2010, 107 (51), 22002-22007; A. baumannii PBPs, Penwell et. al., Antimicrob. Agents Chemother. 2015, 59 (3), 1680-1689; N. gonorrhoeae PBP2, Singh et. al., J Biol. Chem. 2019, 294 (38), 14020-14032). To establish assay conditions for competition binding, enzyme titration/saturation binding experiments were initially performed. Bocillin-FL was prepared at 0.2 μM in a buffer comprised of 50 mM Hepes (pH 8.0), 300 mM NaCl and 5% (v/v) glycerol for reactions with E. coli, P. aeruginosa and N. gonorrhoeae PBPs, and 25 mM Tris (pH 8.0), 200 mM NaCl and 10% (v/v) glycerol and 0.005% (v/v) Tween 20 for reactions with A. baumannii PBPs. Saturation binding was performed by mixing 40 μl of PBP solutions ranging in concentrations from 0-24 μM with 40 μl of the 0.2 μM Bocillin-FL solution, in individual wells of a black 384-well microplate. FP was measured immediately upon mixing (Excitation, 490 nm; Emission, 520 nm; g-factor, 0.96), using a Cytation3 (BioTek) microplate reader and measured continuously for up to 120 minutes. […] The competition binding assay (80 μl final volume) was validated using beta-lactams and PBPs at final concentrations of: 1.5 μM, E. coli PBP3; 0.75 μM, P. aeruginosa PBP3; 1 μM A. baumannii PBP1a; 2.5 μM A. baumannii PBP2; 0.2 μM A. baumannii PBP3; and […] N. gonorrhoeae PBP2. Bocillin-FL was at 0.1 μM (0.05 μM with A. baumannii PBP1a) and beta-lactam concentrations ranged from 0-1000 μM. […] Bocillin-FL was added and the FP immediately measured for up to 60 minutes (90 minutes for E. coli PBP2). […] The beta-lactam potency was reported as the concentration of beta-lactam required to reduce the amount of PBP bound-Bocillin-FL by 50% (EC50). […] Binding assays for boronic acid PBP inhibitors were performed in an identical fashion for the respective PBPs

T1 sequence (G3XD46 whole entry): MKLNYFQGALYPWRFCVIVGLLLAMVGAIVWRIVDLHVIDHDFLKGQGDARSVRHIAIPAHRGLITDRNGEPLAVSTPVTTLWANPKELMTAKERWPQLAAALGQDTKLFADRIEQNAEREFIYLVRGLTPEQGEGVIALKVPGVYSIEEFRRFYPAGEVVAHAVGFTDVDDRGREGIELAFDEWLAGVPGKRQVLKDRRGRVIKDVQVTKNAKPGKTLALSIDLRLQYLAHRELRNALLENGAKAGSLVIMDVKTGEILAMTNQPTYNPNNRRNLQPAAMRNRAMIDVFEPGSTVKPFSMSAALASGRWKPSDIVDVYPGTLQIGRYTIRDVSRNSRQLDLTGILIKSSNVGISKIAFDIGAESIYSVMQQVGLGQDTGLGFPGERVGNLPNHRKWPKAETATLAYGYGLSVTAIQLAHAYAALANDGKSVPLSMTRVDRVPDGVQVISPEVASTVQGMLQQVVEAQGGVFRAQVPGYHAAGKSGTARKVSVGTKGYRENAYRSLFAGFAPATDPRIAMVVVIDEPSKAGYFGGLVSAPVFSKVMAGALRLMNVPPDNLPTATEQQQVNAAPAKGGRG
T2 sequence (P0AD68 1-577): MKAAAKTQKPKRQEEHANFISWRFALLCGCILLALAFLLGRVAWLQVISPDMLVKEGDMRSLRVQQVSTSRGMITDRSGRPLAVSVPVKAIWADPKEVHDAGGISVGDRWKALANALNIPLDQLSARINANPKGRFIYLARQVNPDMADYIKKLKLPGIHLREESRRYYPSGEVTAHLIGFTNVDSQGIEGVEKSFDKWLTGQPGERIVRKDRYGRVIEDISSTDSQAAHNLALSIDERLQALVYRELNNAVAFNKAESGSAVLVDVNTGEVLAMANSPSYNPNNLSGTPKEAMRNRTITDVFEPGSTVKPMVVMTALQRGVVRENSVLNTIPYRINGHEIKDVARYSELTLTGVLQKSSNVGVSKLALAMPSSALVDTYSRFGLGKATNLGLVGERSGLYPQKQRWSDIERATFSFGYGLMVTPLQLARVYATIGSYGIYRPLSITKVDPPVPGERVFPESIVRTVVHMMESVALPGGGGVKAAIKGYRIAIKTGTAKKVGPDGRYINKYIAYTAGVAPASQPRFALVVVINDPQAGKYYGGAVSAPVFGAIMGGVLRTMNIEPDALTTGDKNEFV

Structure (SMILES)	MIC [1] [µg/mL]	MIC [2] [µg/mL]	MIC (E. coli 901C) [µg/mL]	MIC (P. aeruginosa ATCC 35151) [µg/mL]	MIC (E. coli ATCC 25922) [µg/mL]	MIC (E. coli AG100) [µg/mL]	MIC (P. aeruginosa ATCC 27853) [µg/mL]	MIC (E. coli AG100A) [µg/mL]	MIC [3] [µg/mL]	MIC [4] [µg/mL]	MIC (E. coli D22) [µg/mL]	MIC (A. baumannii ATCC 19606) [µg/mL]	P. aeruginosa PBP3 Potency (P. aeruginosa PBP3)	EC50 (E. coli K12 PBP3) [µM]	EC50 [5] [µM]
C[C@H]1CN(CCN)C(=O)C(=O)N1C(=O)N[C@@H](C(=O)N[C@H]1Cc2cccc(C(=O)O)c2OB1O)c1ncc(O)cc1F [Example 14, (R)-3-((R)-2-((S)-4-(2-aminoethyl)-6-methyl-2,3-dioxopiperazine-1-carboxamido)-2-(3-fluoro-5-hydroxypyridin-2-yl)acetamido)-2-hydroxy-3,4-dihydro-2H-benzo[e][1,2]oxaborinine-8-carboxylic acid]	32 to 64 (≈ 55.9 to 112 µM)	8 to 16 (≈ 14 to 28 µM)	0.5 to 1 (≈ 0.874 to 1.75 µM)	0.5 to 1 (≈ 0.874 to 1.75 µM)	8 to 16 (≈ 14 to 28 µM)	8 to 16 (≈ 14 to 28 µM)	> 128	0.5 to 1 (≈ 0.874 to 1.75 µM)	32 to 64 (≈ 55.9 to 112 µM)	8 to 16 (≈ 14 to 28 µM)	2 to 4 (≈ 3.49 to 6.99 µM)	> 128	D (D represents a potency <10 μM)	< 30	< 10
NCCCN1CCN(C(=O)N[C@@H](C(=O)N[C@H]2Cc3cccc(C(=O)O)c3OB2O)c2ncc(O)cc2F)C(=O)C1=O [Example 13, (R)-3-((R)-2-(4-(3-aminopropyl)-2,3-dioxopiperazine-1-carboxamido)-2-(3-fluoro-5-hydroxypyridin-2-yl)acetamido)-2-hydroxy-3,4-dihydro-2H-benzo[e][1,2]oxaborinine-8-carboxylic acid]	32 to 64 (≈ 55.9 to 112 µM)	8 to 16 (≈ 14 to 28 µM)	0.5 to 1 (≈ 0.874 to 1.75 µM)	< 0.25	8 to 16 (≈ 14 to 28 µM)	8 to 16 (≈ 14 to 28 µM)	32 to 64 (≈ 55.9 to 112 µM)	0.5 to 1 (≈ 0.874 to 1.75 µM)	8 to 16 (≈ 14 to 28 µM)	2 to 4 (≈ 3.49 to 6.99 µM)	2 to 4 (≈ 3.49 to 6.99 µM)	> 128	D (D represents a potency <10 μM)	< 30	< 10
